Test results from EP0903343A1, “Alpha-Substituted phenylpropionic acid derivative and medicine containing the same” (SSP Co., Ltd., priority 1997, dated 1999).

System: db/db Mice
Test: Antidiabetic effect on diabetic model mice (blood glucose lowering)
Assay type: in vivo
Conditions: Mus musculus, po, blood glucose 18 to 24 hours after final administration, vs control group, read-out: Percent reduction (%) of blood glucose; for inhibition in vivo at 50 mg/kg/day: 50 mg/kg/day orally once a day for 4 days; for inhibition in vivo at 20 mg/kg/day: 20 mg/kg/day orally once a day for 4 days
Protocol: The α-substituted phenylpropionic acid derivatives (1) according to the present invention were used to conduct a test for evaluating their activities against model mice suffering from non-insulin dependent diabetes mellitus (NIDDM). Incidentally, pioglitazone was used as a comparative compound.
db/db Mice (Crea Co.; preliminarily rearing male mice aged 7 to 9 weeks for a week and using 4 or 5 mice having a blood glucose level of at least 300 mg/dl as a group) were used as subject animals. A predetermined amount of each of the compounds according to the present invention or the comparative compound was orally administered to the mice for 4 days once a day with the compound suspended in a 0.5% aqueous solution of sodium carboxymethyl cellulose. At 18 to 24 hours after the final administration, blood was collected from each of the subject animals to determine its blood glucose level (found value) by means of a simplified blood glucose meter, Mediace (manufactured by Terumo Corporation). On the other hand, the blood glucose level of a group of mice (control group) to which only a 0.5% aqueous solution of sodium carboxymethyl cellulose had been administered was also determined (control value).
On the basis of the thus-determined blood glucose level as to each of the compounds according to the present invention and the comparative compound, percent reduction of blood glucose was calculated out in accordance with the following equation. Percent reduction (%) = [(Control value - Found value)/(Control value)] x 100 [formula]

Row | SMILES | inhibition in vivo at 50 mg/kg/day [%] | inhibition in vivo at 20 mg/kg/day [%] | inhibition in vivo at 10 mg/kg/day (10 mg/kg/day orally once a day for 4 days) [%]
1 | COC(Cc1ccc(OCCN2COc3ccccc3C2=O)cc1)C(N)=O (stereo not drawn) [Compound 1P, 2-methoxy-3-{4-[2-(4-oxo-3,4-dihydro-2H-1,3-benzoxazin-3-yl)ethoxy]phenyl}propanamide] | 66 |  | 
2 | CCSC(Cc1ccc(OCCN2COc3ccccc3C2=O)cc1)C(=O)O (stereo not drawn) [Compound 1O, 2-ethylthio-3-{4-[2-(4-oxo-3,4-dihydro-2H-1,3-benzoxazin-3-yl)ethoxy]phenyl}propanoic acid] | 42 |  | 
3 | CCOC(=O)C(Cc1ccc(OCCn2nc(C)c3ccccc3c2=O)cc1)OCC (stereo not drawn) [Compound 1BI, ethyl 2-ethoxy-3-{4-[2-(4-methyl-1-oxo-1,2-dihydrophthalazin-2-yl)ethoxy]phenyl}propanoate] |  | 52 | 
4 | CCOC(Cc1ccc(OCCn2c(=O)c3ccc(C(F)(F)F)cc3n(C)c2=O)cc1)C(=O)O (stereo not drawn) [Compound 1AR] |  | 38 | 
5 | CCOC(Cc1ccc(OCCn2ncc3ccccc3c2=O)cc1)C(=O)O (stereo not drawn) [Compound 1B, 2-ethoxy-3-{4-[2-(1-oxo-1,2-dihydrophthalazin-2-yl)ethoxy]phenyl}propanoic acid] |  | 43 | 
6 | CCc1ccc(CCOc2ccc(CC3SC(=O)NC3=O)cc2)nc1 (stereo not drawn) [Pioglitazone, pioglitazone, reference compound] | 44 | 26 | 
7 | CCOC(Cc1ccc(OCCn2ncc3ccccc3c2=O)cc1)C(=O)NO (stereo not drawn) [Compound 1AA, 2-ethoxy-3-{4-[2-(1-oxo-1,2-dihydrophthalazin-2-yl)ethoxy]phenyl}propanohydroxamic acid] |  | 48 | 
8 | CCOC(Cc1ccc(OCCN2COc3ccccc3C2=O)cc1)C(=O)O (stereo not drawn) [Compound 1K] | 69 |  | 
9 | CCOC(Cc1ccc(OCCn2ncc3ccccc3c2=O)cc1)C(N)=O (stereo not drawn) [Compound 1A, 2-ethoxy-3-{4-[2-(1-oxo-1,2-dihydrophthalazin-2-yl)ethoxy]phenyl}propanamide] | 73 |  | 
10 | CCOC(Cc1ccc(OCCn2nc(C)c3ccccc3c2=O)cc1)C(=O)O (stereo not drawn) [Compound 1BC] |  |  | 50
11 | CCOC(Cc1ccc(OCCN2COc3ccccc3C2=O)cc1)C(N)=O (stereo not drawn) [Compound 1J] |  | 73 | 
12 | CCOC(Cc1ccc(OCCn2ccc3ccccc3c2=O)cc1)C(=O)O (stereo not drawn) [Compound 1BS] |  | 60 | 
13 | CC(C)OC(Cc1ccc(OCCN2COc3ccccc3C2=O)cc1)C(N)=O (stereo not drawn) [Compound 1N] | 72 |  | 
14 | CCOC(Cc1ccc(CCn2cnc3ccccc3c2=O)cc1)C(N)=O (stereo not drawn) [Compound 1Q, 2-ethoxy-3-{4-[2-(4-oxo-3,4-dihydroquinazolin-3-yl)ethyl]phenyl}propanamide] | 49 |  | 
